Assay results taken from US9464326B2, “Total and phosphorylated IL-1 receptor-associated kinase-1 and IL-1 receptor-associated kinase-4 as a biomarker for cancer progression and chemotherapy resistance” (University of Maryland, Baltimore, priority 2012, dated 2016).

Tested on: CCRF-CEM cells
Assay: Cell number and apoptosis assays
Format: cell-based, human
Conditions: IRAK-1,-4 inhibitor 0-20 μM plus titrated drug, apoptosis by 7AAD at 48 hours, FIG. 23
Method: TLR ligands were diluted 2-fold. Cell lines (25-40×10^3/well) were cultured for 54 hours, whereas fresh patient-derived T-ALL cells (200×10^3/well) were cultured for 30 hours prior to adding [^3H]-thymidine for 18 hours. After this time point, cells were harvested with a Packard Filter-Mate-96 cell harvester (Perkin Elmer, Waltham, Mass., USA) and counted on Packard Top Count-NXT (Perkin Elmer, Waltham, Mass., USA). Results were expressed as average counts per minute (cpm). In some experiments CCRF-CEM cells were pre-treated with TLR1-TLR2 ligand (Pam3CysK4; 2.5 ug/ml) for 48 hrs, washed, and then cultured in the presence of varying concentrations of FBS. Forty-eight hours later, proliferation (±SD) was determined by ^3H-thymidine incorporation. Alternatively, apoptosis was measured by flow cytometry after staining cells with Annexin-V (BD Pharmingen, San Diego, Calif., USA) and propidium iodide (Sigma). Cell number was counted under microscopy by staining cells with trypan blue.
CCRF-CEM cells were treated with IRAK-1,-4 inhibitor for 24, 48, 72, and 96 hours.
The T-ALL cell line CCRF-CEM was cultured in the presence of 0, 1.2, 5, 10, and 20 μM IRAK-1,-4 inhibitor. (FIG. 23). To each concentration of IRAK-1,-4 inhibitor titrating doses of ABT-737 (1000→15 nM) vincristine, VS (10→0.1 nM), and paclitaxol, PAC (100→1.5 nM). […] Apoptosis was measure 48 hours later by staining cells with 7AAD and analyzed by flow cytometry.

| Molecule | synergy with IRAK-1,-4 inhibitor |
| --- | --- |
| oligomicin | No synergist effect |
| CN(C)CC[C@H](CSc1ccccc1)Nc1ccc(S(=O)(=O)NC(=O)c2ccc(N3CCN(Cc4ccccc4-c4ccc(Cl)cc4)CC3)cc2)cc1[N+](=O)[O-] [ABT-737] | synergy |
